Measured values: patent US8653075B2, “Therapeutic methods employing substituted piperidines which are CCR3 antagonists” (Boehringer Ingelheim International GmbH, priority 2009, dated 2014)

Target: T1, human chemokine receptor CCR3 (Homo sapiens, UniProt P51677)
T1 construct: expressed in transfected cells; host or cells: K562 cell line (hCCR3-C1 cells), membrane preparation
T1 sequence (P51677 1-355): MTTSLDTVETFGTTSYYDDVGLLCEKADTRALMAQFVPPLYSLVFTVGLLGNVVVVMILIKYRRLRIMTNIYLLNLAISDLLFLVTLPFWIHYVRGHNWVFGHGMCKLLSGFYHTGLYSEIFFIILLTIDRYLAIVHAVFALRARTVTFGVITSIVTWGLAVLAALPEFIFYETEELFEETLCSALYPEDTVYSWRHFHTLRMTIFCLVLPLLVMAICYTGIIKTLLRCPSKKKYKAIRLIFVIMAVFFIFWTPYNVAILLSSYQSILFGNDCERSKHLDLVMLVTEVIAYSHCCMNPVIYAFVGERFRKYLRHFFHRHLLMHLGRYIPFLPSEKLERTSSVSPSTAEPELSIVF
Assay: CCR3 receptor binding assay (SPA, 125I-eotaxin-1 displacement, hCCR3-C1 K562 cell membranes)
Conditions: human Eotaxin-1 at human CCR3-Rezeptor; for inhibition at 1 µM: 1 μM test compound, read-out: CCR3 % inh @ 1 μM; for Ki: dose range 0.1 to 10000 nM
Description: The CCR3 receptor binding test is based on a K562 cell line (leukemia myelogenic blast cells) transfected with the human chemokine receptor CCR3 (hCCR3-C1 cells). The cell membranes were prepared by disrupting the hCCR3-C1 cells by […]. The preparation was centrifuged at 400 g 4° C. for 30 min. The supernatant was transferred into fresh tubes followed by a second centrifugation at 48000 g, 4° C. for 1 h. The membranes were re-suspended in the SPA incubation buffer (25 mM HEPES, 25 mM MgCl2 6×H2O, 1 mM CaCl2 2×H2O) without bovine serum albumin and homogenized by passing through a single use needle (Terumo, 23Gx1″). The membranes were stored in aliquots at −80° C.
The CCR3 receptor binding assay was performed in a Scintillation Proximity Assay (SPA) design with the radioligand recombinant human ^125Iodine-eotaxin-1. Cell membranes of hCCR3 C1 cells were again homogenized by passing through a single use needle (Terumo, 23Gx1″) and diluted in SPA incubation buffer in suitable concentrations (0.5-10 μg protein/well) in 96 well microtiter plates (1450-514, Perkin Elmer). The SPA assay was set up in the SPA incubation buffer with a final volume of 200 μl and final concentration of 25 mM HEPES, 25 mM MgCl2 6×H2O, 1 mM CaCl2 2×H2O and 0.1% bovine serum albumin. The SPA assay mixture contained 60 μl of the membrane suspension, 80 μl of Wheat Germ Agglutinin coated PVT beads (organic scintillator, GE Healthcare, RPNQ-0001) 0.2 mg/well), 40 μl of recombinant human ^125Jodine-eotaxin-1 (Biotrend), diluted in SPA buffer to a final concentration of 30.000 dpm per well, and 20 μl of the test compound (dissolved in DMSO dilutions). The SPA assay mixture was incubated for 2 h at room temperature. Bound radioactivity was determined with a scintillation counter (Micro Beta “Trilux”, Wallac). Included were controls for total binding (no displacer added, Bo) and non-specific binding (NSB) by adding unlabelled recombinant human Eotaxin-1 (Biotrend, Cat #300-21) or a reference compound.
Determination of the affinity of a test compound was calculated by subtraction of the non-specific binding (NSB) from the total binding (Bo) or the binding in the presence of the test compound (B) at a given compound concentration. […] The Bo-NSB value was set to 0% inhibition.
% inhibition and Ki values are (human Eotaxin-1 at human CCR3-Rezeptor): […]

Row | inhibition at 1 µM [%] | Ki [nM] | SMILES
1 | 101 | 4 | Cc1cc(CN2CCC(N3C(=O)CC[C@@H]3C(=O)Nc3cccc(-c4nnnn4C)c3)CC2)ccc1Cl [Example 1]
2 | 98 | 4 | CNC(=O)c1cc(NC(=O)[C@H]2CCC(=O)N2C2CCN(Cc3ccc(Cl)c(C)c3)CC2)cc(C(F)(F)F)c1 [Example 2]
3 | 75 | 240 | CCOC(=O)c1nnc(NC(=O)[C@H]2CCC(=O)N2C2CCN(Cc3ccc(Cl)c(C)c3)CC2)s1 [Example 3]
4 | 99 | 5 | CCNS(=O)(=O)c1cccc(NC(=O)[C@H]2CCC(=O)N2C2CCN(Cc3ccc(Cl)c(C)c3)CC2)c1 [Example 4]
5 | 98 | 6 | Cc1cc(CN2CCC(N3C(=O)CC[C@@H]3C(=O)Nc3cccc(-c4nnn(C)n4)c3)CC2)ccc1Cl [Example 5]
6 | 100 | 7 | CCNS(=O)(=O)c1cccc(NC(=O)[C@H]2CCC(=O)N2C2CCN(Cc3ccc(Cl)c(Cl)c3)CC2)c1 [Example 6]
7 | 97 | 7 | CNC(=O)c1cc(NC(=O)[C@H]2CCC(=O)N2C2CCN(Cc3ccc(Cl)c(C)c3)CC2)cc(C(=O)NC)c1 [Example 7]
8 | 99 | 9 | Cc1cc(CN2CCC(N3C(=O)CC[C@@H]3C(=O)Nc3cccc(N(CC(=O)N(C)C)S(C)(=O)=O)c3)CC2)ccc1Cl [Example 8]
9 | 95 | 12 | Cc1cc(CN2CCC(N3C(=O)CC[C@@H]3C(=O)Nc3cccc(-c4ccn(C)n4)c3)CC2)ccc1Cl [Example 9]
10 | 98 | 16 | CC(=O)Nc1nc2c(s1)-c1cc(NC(=O)[C@H]3CCC(=O)N3C3CCN(Cc4ccc(Cl)c(C)c4)CC3)ccc1CC2 [Example 10]
11 | 92 | 27 | Cc1cc(CN2CCC(N3C(=O)CC[C@@H]3C(=O)Nc3cc(C4CC4)nn3C)CC2)ccc1Cl [Example 11]
12 | 84 | 88 | CCNS(=O)(=O)c1cccc(NC(=O)[C@@H]2CCC(=O)N2C2CCN(Cc3ccc(Cl)c(C)c3)CC2)c1 [Example 12]
13 | 71 | 373 | Cc1cc(CN2CCC(N3C(=O)CC[C@@H]3C(=O)N3CCc4ccccc43)CC2)ccc1Cl [Example 13]
14 | 60 | 540 | Cc1cc(CN2CCC(N3C(=O)CC[C@@H]3C(=O)N[C@H]3CCN(C(=O)OC(C)(C)C)C3)CC2)ccc1Cl [Example 14]
15 | 38 | 1110 | Cc1cc(CN2CCC(N3C(=O)CC[C@@H]3C(=O)N3CCCc4ccccc43)CC2)ccc1Cl [Example 15]
16 | 98 | 20 | Cc1cc(CN2CCC(N3C(=O)CC[C@@H]3C(=O)Nc3cccc(-c4nc[nH]n4)c3)CC2)ccc1Cl [Example 16]
17 | 100 | 5 | Cc1cc(CN2CCC(N3C(=O)CC[C@@H]3C(=O)Nc3cccc(N4CCNC4=O)c3)CC2)ccc1Cl [Example 17]
18 | 96 | 7 | Cc1cc(CN2CCC(N3C(=O)CC[C@@H]3C(=O)Nc3cccc(N4CCN(C)C4=O)c3)CC2)ccc1Cl [Example 18]
19 | 98 | 7 | Cc1cc(CN2CCC(N3C(=O)CC[C@@H]3C(=O)Nc3cccc(N4CCCCC4)c3)CC2)ccc1Cl [Example 19]
20 | 97 | 9 | CCN(C)S(=O)(=O)c1cccc(NC(=O)[C@H]2CCC(=O)N2C2CCN(Cc3ccc(Cl)c(C)c3)CC2)c1 [Example 20]
21 | 96 | 11 | CCS(=O)(=O)N(CC(=O)N(C)C)c1cccc(NC(=O)[C@H]2CCC(=O)N2C2CCN(Cc3ccc(Cl)c(C)c3)CC2)c1 [Example 21]
22 | 84 | 13 | Cc1cc(CN2CCC(N3C(=O)CC[C@@H]3C(=O)Nc3cccc(S(=O)(=O)N4CCCCC4)c3)CC2)ccc1Cl [Example 22]
23 | 95 | 18 | Cc1cc(CN2CCC(N3C(=O)CC[C@H]3C(=O)Nc3ccc4c(c3)CCC(=O)N4)CC2)ccc1Cl [Example 23]

Row | inhibition at 1 µM [%] | Ki [nM] | SMILES
24 | 99 | 22 | Cc1nccc(-c2cccc(NC(=O)[C@H]3CCC(=O)N3C3CCN(Cc4ccc(Cl)c(C)c4)CC3)c2)n1 [Example 24]
25 | 97 | 27 | Cc1cc(CN2CCC(N3C(=O)CC[C@@H]3C(=O)Nc3cccc(S(=O)(=O)CCO)c3)CC2)ccc1Cl [Example 26]
26 | 96 | 28 | Cc1cc(CN2CCC(N3C(=O)CC[C@@H]3C(=O)Nc3cccc(-c4c[nH]cn4)c3)CC2)ccc1Cl [Example 27]
27 | 97 | 29 | Cc1cc(CN2CCC(N3C(=O)CC[C@@H]3C(=O)Nc3cccc(-c4cnco4)c3)CC2)ccc1Cl [Example 28]
28 | 94 | 31 | Cc1cc(CN2CCC(N3C(=O)CC[C@@H]3C(=O)NC3CCC(NS(=O)(=O)c4ccccc4)CC3)CC2)ccc1Cl (some centres unmarked) [Example 29]
29 | 93 | 50 | Cc1cc(CN2CCC(N3C(=O)CC[C@@H]3C(=O)Nc3ccc4[nH]ncc4c3)CC2)ccc1Cl [Example 31]
30 | 82 | 145 | Cc1cc(CN2CCC(N3C(=O)CC[C@@H]3C(=O)Nc3cc(C(N)=O)cc(C(N)=O)c3)CC2)ccc1Cl [Example 32]
31 | 83 | 150 | Cc1cc(CN2CCC(N3C(=O)CC[C@@H]3C(=O)Nc3ccc(N4CCCOC4=O)c(C)c3)CC2)ccc1Cl [Example 33]
32 | 80 | 152 | COc1cc(NC(=O)[C@H]2CCC(=O)N2C2CCN(Cc3ccc(Cl)c(C)c3)CC2)ccc1N1CCCCC1=O [Example 34]
33 | 80 | 159 | Cc1cc(CN2CCC(N3C(=O)CC[C@@H]3C(=O)Nc3cccnc3)CC2)ccc1Cl [Example 36]
34 | 80 | 175 | CNC(=O)N1CCc2cc(NC(=O)[C@H]3CCC(=O)N3C3CCN(Cc4ccc(Cl)c(C)c4)CC3)ccc21 [Example 37]
35 | 78 | 211 | Cc1cc(CN2CCC(N3C(=O)CC[C@H]3C(=O)NCc3ccccc3OC(F)F)CC2)ccc1Cl [Example 38]
36 | 80 | 227 | Cc1cc(CN2CCC(N3C(=O)CC[C@@H]3C(=O)Nc3cccc(CNC(=O)NC4CCCCC4)c3)CC2)ccc1Cl [Example 39]
37 | 75 | 229 | Cc1cccc(NC(=O)[C@@H]2CCC(=O)N2C2CCN(Cc3ccc(Cl)c(C)c3)CC2)n1 [Example 40]
38 | 66 | 395 | CCn1nccc1CNC(=O)[C@H]1CCC(=O)N1C1CCN(Cc2ccc(Cl)c(C)c2)CC1 [Example 41]
39 | 63 | 482 | Cc1cc(CN2CCC(N3C(=O)CC[C@H]3C(=O)Nc3n[nH]c4ccccc34)CC2)ccc1Cl [Example 42]
40 | 59 | 523 | COc1ccccc1C1CCCN(C(=O)[C@H]2CCC(=O)N2C2CCN(Cc3ccc(Cl)c(C)c3)CC2)C1 (some centres unmarked) [Example 43]
41 | 63 | 552 | Cc1cc(CN2CCC(N3C(=O)CC[C@@H]3C(=O)N[C@H]3CC[C@H](NC(=O)Nc4ccccc4)CC3)CC2)ccc1Cl [Example 44]
42 | 50 |  | Cc1cc(CN2CCC(N3C(=O)CC[C@H]3C(=O)NCc3ccnn3C)CC2)ccc1Cl [Example 45]
43 | 44 | 873 | Cc1cc(CN2CCC(N3C(=O)CC[C@H]3C(=O)NCc3ccccc3)CC2)ccc1Cl [Example 46]
44 | 31 | 1190 | Cc1cc(CN2CCC(N3C(=O)CC[C@H]3C(=O)NCc3noc(C4CCCC4)n3)CC2)ccc1Cl [Example 47]
45 | 40 | 965 | Cc1cc(CN2CCC(N3C(=O)CC[C@H]3C(=O)NC3CCC(F)(F)CC3)CC2)ccc1Cl [Example 48]
